Test results reported in ChEMBL document CHEMBL2021896, “A novel pyrimidine derivatives with aryl urea, thiourea and sulfonamide moieties: synthesis, anti-inflammatory and antimicrobial evaluation” (2012).
Values after ≈ are worked out from the molar mass of the structure shown. Active and inactive are the calls of the source. The rule behind the calls is not given here.

Key:
Bacillus subtilis [1] = experiment: Antibacterial activity against Bacillus subtilis by agar well diffusion method; assay type: functional
Staphylococcus aureus [2] = experiment: Antibacterial activity against Staphylococcus aureus by agar well diffusion method; assay type: functional
Aspergillus flavus = experiment: Antifungal activity against Aspergillus flavus up to 200 ug/ml by agar well diffusion method; assay type: functional, organism-based
Aspergillus niger = experiment: Antifungal activity against Aspergillus niger up to 200 ug/ml by agar well diffusion method; assay type: functional, organism-based
Salmonella typhimurium [3] = experiment: Antibacterial activity against Salmonella typhimurium by agar well diffusion method; assay type: functional, Salmonella enterica subsp. enterica serovar Typhimurium; details: Salmonella enterica
Escherichia coli [4] = experiment: Antibacterial activity against Escherichia coli by agar well diffusion method; assay type: functional
THP-1 [5] = experiment: Antiinflammatory activity in human PMA-stimulated THP1 cells assessed as inhibition of LPS-induced IL-6 production at 10 uM treated 30 mins before LPS challenge measured after 24 hrs by ELISA; assay type: functional
Fusarium solani [6] = experiment: Antifungal activity against Fusarium solani up to 200 ug/ml by agar well diffusion method; assay type: functional, organism-based
Candida albicans = experiment: Antifungal activity against Candida albicans up to 200 ug/ml by agar well diffusion method; assay type: functional, organism-based
THP-1 [7] = experiment: Antiinflammatory activity in human PMA-stimulated THP1 cells assessed as inhibition of LPS-induced TNFalpha production at 10 uM treated 30 mins before LPS challenge measured after 24 hrs by ELISA; assay type: functional
Salmonella typhimurium [8] = experiment: Antibacterial activity against Salmonella typhimurium up to 200 ug/ml by agar well diffusion method; assay type: functional, organism-based; details: Salmonella enterica subsp. enterica serovar Typhimurium
Escherichia coli [9] = experiment: Antibacterial activity against Escherichia coli up to 200 ug/ml by agar well diffusion method; assay type: functional, organism-based
Staphylococcus aureus [10] = experiment: Antibacterial activity against Staphylococcus aureus up to 200 ug/ml by agar well diffusion method; assay type: functional, organism-based
Bacillus subtilis [11] = experiment: Antibacterial activity against Bacillus subtilis up to 200 ug/ml by agar well diffusion method; assay type: functional, organism-based
THP-1 [12] = experiment: Antiinflammatory activity in human PMA-stimulated THP1 cells assessed as inhibition of LPS-induced TNFalpha production at 1 uM treated 30 mins before LPS challenge measured after 24 hrs by ELISA; assay type: functional
THP-1 [13] = experiment: Antiinflammatory activity in human PMA-stimulated THP1 cells assessed as inhibition of LPS-induced IL-6 production at 1 uM treated 30 mins before LPS challenge measured after 24 hrs by ELISA; assay type: functional
Fusarium solani [14] = experiment: Antifungal activity against Fusarium solani by agar well diffusion method; assay type: functional

SMILES: O=S(=O)(Nc1ccc(-c2cc(Nc3cccc(C(F)(F)F)c3)ncn2)cc1)c1ccc(OC(F)(F)F)cc1
- MIC (Bacillus subtilis [1]): 20 µg/mL (≈ 36.1 µM)
- MIC (Staphylococcus aureus [2]): 15 µg/mL (≈ 27.1 µM)
- Activity (Aspergillus flavus): inactive
- Activity (Aspergillus niger): inactive
- MIC (Salmonella typhimurium [3]): 10 µg/mL (≈ 18 µM)
- MIC (Escherichia coli [4]): 15 µg/mL (≈ 27.1 µM)
- inhibition at 10 µM (THP-1 [5]): 8%
- Activity (Fusarium solani [6]): inactive
- Activity (Candida albicans): inactive
- inhibition at 10 µM (THP-1 [7]): 0%

SMILES: O=[N+]([O-])c1ccc(-c2cc(Nc3cccc(C(F)(F)F)c3)ncn2)cc1
- Activity (Aspergillus flavus): inactive
- Activity (Salmonella typhimurium [8]): inactive
- Activity (Escherichia coli [9]): inactive
- Activity (Staphylococcus aureus [10]): inactive
- Activity (Aspergillus niger): inactive
- inhibition at 10 µM (THP-1 [5]): 0%
- Activity (Fusarium solani [6]): inactive
- Activity (Candida albicans): inactive
- inhibition at 10 µM (THP-1 [7]): 0%
- Activity (Bacillus subtilis [11]): inactive

SMILES: Cc1ccccc1NC(=S)Nc1ccc(-c2cc(Nc3cccc(C(F)(F)F)c3)ncn2)cc1
- Activity (Aspergillus flavus): inactive
- Activity (Salmonella typhimurium [8]): inactive
- Activity (Escherichia coli [9]): inactive
- Activity (Staphylococcus aureus [10]): inactive
- Activity (Aspergillus niger): inactive
- inhibition at 10 µM (THP-1 [5]): 0%
- Activity (Fusarium solani [6]): inactive
- Activity (Candida albicans): inactive
- inhibition at 10 µM (THP-1 [7]): 0%
- Activity (Bacillus subtilis [11]): inactive

SMILES: CC(C)c1ccc(NC(=O)Nc2ccc(-c3cc(Nc4cccc(C(F)(F)F)c4)ncn3)cc2)cc1
- MIC (Bacillus subtilis [1]): 40 µg/mL (≈ 81.4 µM)
- MIC (Staphylococcus aureus [2]): 25 µg/mL (≈ 50.9 µM)
- Activity (Aspergillus flavus): inactive
- Activity (Aspergillus niger): inactive
- MIC (Salmonella typhimurium [3]): 40 µg/mL (≈ 81.4 µM)
- MIC (Escherichia coli [4]): 20 µg/mL (≈ 40.7 µM)
- inhibition at 10 µM (THP-1 [5]): 90%
- Activity (Fusarium solani [6]): inactive
- Activity (Candida albicans): inactive
- inhibition at 10 µM (THP-1 [7]): 71%

SMILES: C[C@@H]1C[C@H]2[C@@H]3CCC4=CC(=O)C=C[C@]4(C)[C@@]3(F)[C@@H](O)C[C@]2(C)[C@@]1(O)C(=O)CO [DEXAMETHASONE]
- inhibition at 1 µM (THP-1 [12]): 72%
- inhibition at 1 µM (THP-1 [13]): 86%

SMILES: FC(F)(F)c1cccc(Nc2cc(-c3ccc(NC(=S)Nc4ccc(Cl)cc4)cc3)ncn2)c1
- MIC (Bacillus subtilis [1]): 35 µg/mL (≈ 70 µM)
- MIC (Staphylococcus aureus [2]): 35 µg/mL (≈ 70 µM)
- Activity (Aspergillus flavus): inactive
- MIC (Fusarium solani [14]): 90 µg/mL (≈ 180 µM)
- Activity (Aspergillus niger): inactive
- MIC (Salmonella typhimurium [3]): 30 µg/mL (≈ 60 µM)
- MIC (Escherichia coli [4]): 30 µg/mL (≈ 60 µM)
- inhibition at 10 µM (THP-1 [5]): 28%
- Activity (Candida albicans): inactive
- inhibition at 10 µM (THP-1 [7]): 23%

SMILES: Cc1cccc(S(=O)(=O)Nc2ccc(-c3cc(Nc4cccc(C(F)(F)F)c4)ncn3)cc2)c1
- MIC (Staphylococcus aureus [2]): 90 µg/mL (≈ 186 µM)
- Activity (Aspergillus flavus): inactive
- Activity (Aspergillus niger): inactive
- MIC (Salmonella typhimurium [3]): 90 µg/mL (≈ 186 µM)
- MIC (Escherichia coli [4]): 90 µg/mL (≈ 186 µM)
- inhibition at 10 µM (THP-1 [5]): 25%
- Activity (Fusarium solani [6]): inactive
- Activity (Candida albicans): inactive
- inhibition at 10 µM (THP-1 [7]): 14%
- Activity (Bacillus subtilis [11]): inactive
